From patent US20260193264A1, “BENZOYPARAZINE PYRAZINES AND THEIR USES” (FOGHORN THERAPEUTICS INC., priority 2022, published 2026) come the findings set out here.

The target in assay [1] is T1, HiBiT-BRM fusion protein in stable HeLa cell line (Homo sapiens, UniProt P51531).
T1 construct: expressed in transfected cells
Kind of assay: HiBiT-BRM cell-based degradation assay (Nano-Glo HiBiT Lytic Detection, 24 h). As to conditions: HeLa HiBiT-BRM cells; for DC50: read-out: BRM HiBit Degradation IC50; for BRM HiBit Degradation Maximum (%): top dose 30 μM. The arrangement: DC50: scale not given here. Summed up: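 Percent degradation was scaled between DMSO-treated cells and cells given 2 μM of a known BRM/BRG1 degrader. Readout was NanoBiT luminescence after lytic detection. HeLa cells stably expressing HiBiT-BRM were dosed for 24 h, 10 points, 3-fold steps from 30 μM final, in duplicate.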

Assay [2] addresses T2, HiBit-BRG1 fusion protein in stable HeLa cell line expressing HiBit-BRG1 and LgBit (Homo sapiens, UniProt P51532).
T2 construct: expressed in transfected cells
Kind of assay: HiBiT-BRG1 cell-based degradation assay (Nano-Glo HiBiT, 24 h). As to conditions: HeLa HiBit-BRG1/LgBit cells; for DC50: read-out: BRMG1 HiBit Degradation IC50; for Dmax: top dose 30 μM, read-out: BRG1 HiBit Degradation Maximum (%). Summed up:
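Degradation calculated from NanoBiT luminescence relative to DMSO-treated cells (high) and cells given 2 μM known BRM/BRG1 degrader (low). HeLa cells stably expressing HiBiT-BRG1 plus LgBiT were exposed to compound for 24 h before lytic HiBiT detection.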

T1 sequence (P51531 whole entry, the tested form may be a part): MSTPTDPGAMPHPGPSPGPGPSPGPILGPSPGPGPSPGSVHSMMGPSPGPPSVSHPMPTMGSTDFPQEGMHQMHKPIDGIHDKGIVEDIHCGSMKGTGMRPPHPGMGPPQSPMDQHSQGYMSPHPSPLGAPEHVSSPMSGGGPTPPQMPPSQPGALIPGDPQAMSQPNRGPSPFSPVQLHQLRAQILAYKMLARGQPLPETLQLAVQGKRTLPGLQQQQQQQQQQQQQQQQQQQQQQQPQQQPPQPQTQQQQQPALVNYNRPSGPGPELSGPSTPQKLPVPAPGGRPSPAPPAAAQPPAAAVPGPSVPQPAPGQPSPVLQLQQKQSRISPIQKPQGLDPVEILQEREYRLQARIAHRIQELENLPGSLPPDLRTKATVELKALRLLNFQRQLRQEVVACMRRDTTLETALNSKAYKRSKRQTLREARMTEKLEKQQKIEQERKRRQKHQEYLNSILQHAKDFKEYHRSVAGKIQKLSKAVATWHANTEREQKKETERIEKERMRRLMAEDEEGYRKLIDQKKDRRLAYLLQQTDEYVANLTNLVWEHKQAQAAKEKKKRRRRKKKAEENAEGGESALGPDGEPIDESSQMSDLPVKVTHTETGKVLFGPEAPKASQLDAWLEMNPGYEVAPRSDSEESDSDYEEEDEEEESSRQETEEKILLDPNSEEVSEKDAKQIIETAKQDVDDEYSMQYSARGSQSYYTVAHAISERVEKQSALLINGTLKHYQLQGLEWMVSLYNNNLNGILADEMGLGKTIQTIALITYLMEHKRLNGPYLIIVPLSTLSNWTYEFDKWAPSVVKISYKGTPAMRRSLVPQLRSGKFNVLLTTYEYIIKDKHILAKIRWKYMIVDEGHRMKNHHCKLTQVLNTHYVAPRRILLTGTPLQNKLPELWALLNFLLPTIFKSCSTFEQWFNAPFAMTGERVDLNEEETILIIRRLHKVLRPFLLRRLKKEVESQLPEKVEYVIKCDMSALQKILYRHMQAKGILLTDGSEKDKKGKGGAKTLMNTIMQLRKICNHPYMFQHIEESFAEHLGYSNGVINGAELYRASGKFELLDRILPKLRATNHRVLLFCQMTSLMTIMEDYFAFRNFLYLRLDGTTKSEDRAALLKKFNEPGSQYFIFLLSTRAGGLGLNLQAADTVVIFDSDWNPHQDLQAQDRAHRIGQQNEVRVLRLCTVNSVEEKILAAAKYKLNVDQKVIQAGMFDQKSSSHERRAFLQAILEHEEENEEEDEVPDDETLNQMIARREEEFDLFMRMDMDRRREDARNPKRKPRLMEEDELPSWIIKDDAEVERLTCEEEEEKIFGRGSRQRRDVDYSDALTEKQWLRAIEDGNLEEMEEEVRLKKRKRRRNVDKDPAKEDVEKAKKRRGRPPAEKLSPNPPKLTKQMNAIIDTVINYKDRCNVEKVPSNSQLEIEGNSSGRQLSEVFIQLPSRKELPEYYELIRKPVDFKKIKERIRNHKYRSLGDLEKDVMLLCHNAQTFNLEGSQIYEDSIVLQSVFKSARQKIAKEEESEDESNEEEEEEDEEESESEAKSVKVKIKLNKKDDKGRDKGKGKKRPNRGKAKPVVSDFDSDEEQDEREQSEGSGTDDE
T2 sequence (P51532 whole entry, the tested form may be a part): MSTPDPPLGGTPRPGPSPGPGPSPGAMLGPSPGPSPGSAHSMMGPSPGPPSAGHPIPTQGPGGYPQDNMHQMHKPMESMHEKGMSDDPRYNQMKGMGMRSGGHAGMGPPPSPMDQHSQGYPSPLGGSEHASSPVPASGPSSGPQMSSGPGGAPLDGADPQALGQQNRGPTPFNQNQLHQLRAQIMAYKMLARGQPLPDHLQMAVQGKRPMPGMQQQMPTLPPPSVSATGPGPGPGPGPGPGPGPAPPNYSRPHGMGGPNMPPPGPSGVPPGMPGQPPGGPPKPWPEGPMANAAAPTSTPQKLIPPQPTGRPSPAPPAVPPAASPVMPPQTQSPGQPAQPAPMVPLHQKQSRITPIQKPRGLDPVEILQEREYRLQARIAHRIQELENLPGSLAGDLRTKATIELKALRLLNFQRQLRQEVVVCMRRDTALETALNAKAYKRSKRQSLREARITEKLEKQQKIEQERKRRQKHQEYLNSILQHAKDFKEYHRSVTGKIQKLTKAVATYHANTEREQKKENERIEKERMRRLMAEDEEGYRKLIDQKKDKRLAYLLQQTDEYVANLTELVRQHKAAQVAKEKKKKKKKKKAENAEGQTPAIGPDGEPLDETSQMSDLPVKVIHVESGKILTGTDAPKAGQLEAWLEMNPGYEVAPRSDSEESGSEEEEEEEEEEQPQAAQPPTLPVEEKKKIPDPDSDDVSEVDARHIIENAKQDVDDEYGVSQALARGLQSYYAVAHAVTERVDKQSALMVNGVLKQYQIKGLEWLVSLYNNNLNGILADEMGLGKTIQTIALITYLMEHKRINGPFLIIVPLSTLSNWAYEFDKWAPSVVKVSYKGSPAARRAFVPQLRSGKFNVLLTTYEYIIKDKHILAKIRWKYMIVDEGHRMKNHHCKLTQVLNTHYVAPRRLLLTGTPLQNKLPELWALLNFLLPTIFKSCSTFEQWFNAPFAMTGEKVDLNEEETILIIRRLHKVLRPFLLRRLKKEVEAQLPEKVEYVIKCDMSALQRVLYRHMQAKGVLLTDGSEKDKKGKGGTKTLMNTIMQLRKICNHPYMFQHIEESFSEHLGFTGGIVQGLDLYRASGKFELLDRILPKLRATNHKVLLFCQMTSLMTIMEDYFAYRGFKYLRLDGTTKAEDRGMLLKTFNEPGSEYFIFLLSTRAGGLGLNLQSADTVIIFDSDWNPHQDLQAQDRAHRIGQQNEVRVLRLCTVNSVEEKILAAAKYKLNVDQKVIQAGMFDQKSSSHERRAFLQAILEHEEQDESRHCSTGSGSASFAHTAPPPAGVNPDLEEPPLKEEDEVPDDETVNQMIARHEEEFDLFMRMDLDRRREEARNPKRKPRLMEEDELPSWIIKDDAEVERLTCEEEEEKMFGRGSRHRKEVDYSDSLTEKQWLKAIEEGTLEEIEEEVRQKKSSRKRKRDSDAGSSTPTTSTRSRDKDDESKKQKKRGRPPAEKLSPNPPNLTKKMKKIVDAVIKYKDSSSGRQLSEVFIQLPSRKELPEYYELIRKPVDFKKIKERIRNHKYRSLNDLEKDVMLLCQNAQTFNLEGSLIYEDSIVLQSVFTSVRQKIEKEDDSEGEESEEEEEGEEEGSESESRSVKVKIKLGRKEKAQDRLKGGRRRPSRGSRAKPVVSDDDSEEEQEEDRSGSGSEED

`Cc1ncsc1-c1ccc([C@H](C)NC(=O)[C@@H]2C[C@@H](O)CN2C(=O)C(C(C)C)n2cc(N3CCC4(CC3)CN(c3ccc5cc(-c6ccccc6O)nnc5c3)C4)nn2)cc1` (stereo partly drawn) [Compound 197, (2S,4R)-4-hydroxy-1-(2-(4-(2-(3-(2-hydroxyphenyl)cinnolin-7-yl)-2,7-diazaspiro[3.5]nonan-7-yl)-1H-1,2,3-triazol-1-yl)-3-methylbutanoyl)-N-((S)-1-(4-(4-methylthiazol-5-yl)phenyl)ethyl)pyrrolidine-2-carboxamide]: in assay [1], the DC50 is less than 10 nM and the “BRM HiBit Degradation Maximum (%)” value is on record as “A (“A” indicates maximum degradation ≥75%)”. In assay [2], the DC50 is less than 10 nM and the Dmax is more than 75%.

As for `Cc1ncsc1-c1ccc([C@H](C)NC(=O)[C@@H]2C[C@@H](O)CN2C(=O)[C@H](C(C)C)n2cc(N3CCN4CCN(c5ccc6cc(-c7ccccc7O)nnc6c5)C[C@H]4C3)nn2)cc1` [Compound 198], in assay [1], the DC50 was less than 10 nM and the “BRM HiBit Degradation Maximum (%)” value was “A (“A” indicates maximum degradation ≥75%)”. Also, in assay [2], the DC50 was less than 10 nM and the Dmax was more than 75%.

With `Cc1ncsc1-c1ccc([C@H](C)NC(=O)[C@@H]2C[C@@H](O)CN2C(=O)[C@@H](c2cc(C3CC4(C3)CN(c3ccc5cc(-c6ccccc6O)nnc5c3)C4)no2)C(C)C)cc1` [Compound 199, (2S,4R)-4-hydroxy-1-((R)-2-(3-(2-(3-(2-hydroxyphenyl)cinnolin-7-yl)-2-azaspiro[3.3]heptan-6-yl)isoxazol-5-yl)-3-methylbutanoyl)-N-((S)-1-(4-(4-methylthiazol-5-yl)phenyl)ethyl)pyrrolidine-2-carboxamide], in assay [1], the DC50 was less than 10 nM and the “BRM HiBit Degradation Maximum (%)” value is on record as “A (“A” indicates maximum degradation ≥75%)”. For the same compound, in assay [2], the DC50 is more than 10 nM and the Dmax was more than 75%.

On to `CC(C)[C@@H](C(=O)N1C[C@H](O)C[C@H]1C(=O)N[C@@H](C)c1ccc(F)cc1)n1cc(N2CC3(CN(c4ccc5cc(-c6ccccc6O)nnc5c4)C3)C2)nn1` [Compound 201, (2S,4R)-N-((S)-1-(4-fluorophenyl)ethyl)-4-hydroxy-1-((S)-2-(4-(6-(3-(2-hydroxyphenyl)cinnolin-7-yl)-2,6-diazaspiro[3.3]heptan-2-yl)-1H-1,2,3-triazol-1-yl)-3-methylbutanoyl)pyrrolidine-2-carboxamide], for which, in assay [1], the DC50 is less than 10 nM and the “BRM HiBit Degradation Maximum (%)” value was “A (“A” indicates maximum degradation ≥75%)”. Moreover, in assay [2], the DC50 is more than 10 nM and the Dmax was more than 50%.

With `CC(C)[C@@H](C(=O)N1C[C@H](O)C[C@H]1C(=O)N[C@@H](C)c1ccc(C#N)cc1)n1cc(N2CC3(CN(c4ccc5cc(-c6ccccc6O)nnc5c4)C3)C2)nn1` [Compound 202, (2S,4R)-N-((S)-1-(4-cyanophenyl)ethyl)-4-hydroxy-1-((S)-2-(4-(6-(3-(2-hydroxyphenyl)cinnolin-7-yl)-2,6-diazaspiro[3.3]heptan-2-yl)-1H-1,2,3-triazol-1-yl)-3-methylbutanoyl)pyrrolidine-2-carboxamide], in assay [1], the DC50 was less than 10 nM and the “BRM HiBit Degradation Maximum (%)” value was “A (“A” indicates maximum degradation ≥75%)”. Also, in assay [2], the DC50 is more than 10 nM and the Dmax was more than 50%.

`Cc1ncsc1-c1ccc([C@H](C)NC(=O)[C@@H]2C[C@@H](O)CN2C(=O)[C@H](C(C)C)n2cc(-c3ccc4nnc(-c5ccccc5O)cc4c3C)nn2)cc1` [Compound 203, (2S,4R)-4-hydroxy-1-((S)-2-(4-(3-(2-hydroxyphenyl)-5-methylcinnolin-6-yl)-1H-1,2,3-triazol-1-yl)-3-methylbutanoyl)-N-((S)-1-(4-(4-methylthiazol-5-yl)phenyl)ethyl)pyrrolidine-2-carboxamide]: in assay [1], the DC50 was more than 10 nM and the “BRM HiBit Degradation Maximum (%)” value is on record as “A (“A” indicates maximum degradation ≥75%)”. Further, the Dmax in assay [2] was less than 50%.

`Cc1ncsc1-c1ccc([C@H](C)NC(=O)[C@@H]2C[C@@H](O)CN2C(=O)[C@H](C(C)C)n2cc(C3CC4(C3)CN(c3ccc5nnc(-c6ccccc6O)cc5c3)C4)nn2)cc1` [Compound 204, (2S,4R)-4-hydroxy-1-((S)-2-(4-(2-(3-(2-hydroxyphenyl)cinnolin-6-yl)-2-azaspiro[3.3]heptan-6-yl)-1H-1,2,3-triazol-1-yl)-3-methylbutanoyl)-N-((S)-1-(4-(4-methylthiazol-5-yl)phenyl)ethyl)pyrrolidine-2-carboxamide]: in assay [1], the DC50 is less than 10 nM and the “BRM HiBit Degradation Maximum (%)” value was “A (“A” indicates maximum degradation ≥75%)”. For the same compound, in assay [2], the DC50 is less than 10 nM and the Dmax was more than 75%.

`Cc1ncsc1-c1ccc([C@H](C)NC(=O)[C@@H]2C[C@@H](O)CN2C(=O)[C@@H](c2cc(N3CC4(CN(c5cc(C(F)F)c6cc(-c7ccccc7O)nnc6c5)C4)C3)no2)C(C)C)cc1` [Compound 205, (2S,4R)-1-((R)-2-(3-(6-(5-(difluoromethyl)-3-(2-hydroxyphenyl)cinnolin-7-yl)-2,6-diazaspiro[3.3]heptan-2-yl)isoxazol-5-yl)-3-methylbutanoyl)-4-hydroxy-N-((S)-1-(4-(4-methylthiazol-5-yl)phenyl)ethyl)pyrrolidine-2-carboxamide]: in assay [1], the DC50 is less than 10 nM and the “BRM HiBit Degradation Maximum (%)” value is recorded as “A (“A” indicates maximum degradation ≥75%)”. For the same compound, the Dmax in assay [2] was less than 50%.

Take `Cc1ncsc1-c1ccc([C@H](C)NC(=O)[C@@H]2C[C@@H](O)CN2C(=O)[C@@H](c2cc(N3CC4(C3)CN(c3cc5nnc(-c6ccccc6O)cc5cc3OC(F)F)C4)no2)C(C)C)cc1` [Compound 206, (2S,4R)-1-((R)-2-(3-(6-(6-(difluoromethoxy)-3-(2-hydroxyphenyl)cinnolin-7-yl)-2,6-diazaspiro[3.3]heptan-2-yl)isoxazol-5-yl)-3-methylbutanoyl)-4-hydroxy-N-((S)-1-(4-(4-methylthiazol-5-yl)phenyl)ethyl)pyrrolidine-2-carboxamide]: in assay [1], the DC50 is less than 10 nM and the “BRM HiBit Degradation Maximum (%)” value is “A (“A” indicates maximum degradation ≥75%)”. For the same compound, in assay [2], the DC50 was more than 10 nM and the Dmax is more than 50%.

Regarding `Cc1ncsc1-c1ccc([C@H](C)NC(=O)[C@@H]2C[C@@H](O)CN2C(=O)[C@@H](c2cc(N3CC4(C3)CN(c3cc5nnc(-c6ccccc6O)cc5cc3N(C)C)C4)no2)C(C)C)cc1` [Compound 207, (2S,4R)-1-((R)-2-(3-(6-(6-(dimethylamino)-3-(2-hydroxyphenyl)cinnolin-7-yl)-2,6-diazaspiro[3.3]heptan-2-yl)isoxazol-5-yl)-3-methylbutanoyl)-4-hydroxy-N-((S)-1-(4-(4-methylthiazol-5-yl)phenyl)ethyl)pyrrolidine-2-carboxamide], in assay [1], the DC50 was less than 10 nM and the “BRM HiBit Degradation Maximum (%)” value is recorded as “A (“A” indicates maximum degradation ≥75%)”. In addition, in assay [2], the DC50 was less than 10 nM and the Dmax was more than 75%.

As for `Cc1ncsc1-c1ccc([C@H](C)NC(=O)[C@@H]2C[C@@H](O)CN2C(=O)[C@H](C(C)C)n2cc(C3CC4(CC(c5ccc6cc(-c7ccccc7O)nnc6c5)C4)C3)nn2)cc1` (stereo partly drawn) [Compound 208, (2S,4R)-4-hydroxy-1-[(2S)-2-(4-{6-[3-(2-hydroxyphenyl)cinnolin-7-yl]spiro[3.3]heptan-2-yl}-1,2,3-triazol-1-yl)-3-methylbutanoyl]-N-[(1S)-1-[4-(4-methyl-1,3-thiazol-5-yl)phenyl]ethyl]pyrrolidine-2-carboxamide], in assay [1], the DC50 was less than 10 nM and the “BRM HiBit Degradation Maximum (%)” value was “A (“A” indicates maximum degradation ≥75%)”. For the same compound, in assay [2], the DC50 was more than 10 nM and the Dmax is more than 75%.

As for `CNC(=O)[C@@H]1C[C@@H](O)CN1C(=O)[C@@H](c1cc(N2CC3(C2)CN(c2cc4nnc(-c5ccccc5O)cc4cc2OC)C3)no1)C(C)C` [Compound 209, (2S,4R)-4-hydroxy-1-((R)-2-(3-(6-(3-(2-hydroxyphenyl)-6-methoxycinnolin-7-yl)-2,6-diazaspiro[3.3]heptan-2-yl)isoxazol-5-yl)-3-methylbutanoyl)-N-methylpyrrolidine-2-carboxamide], in assay [1], the DC50 is less than 10 nM and the “BRM HiBit Degradation Maximum (%)” value is “A (“A” indicates maximum degradation ≥75%)”. In addition, the Dmax in assay [2] is less than 50%.

As to `Cc1ncsc1-c1ccc([C@H](C)NC(=O)[C@@H]2C[C@@H](O)CN2C(=O)[C@H](C2CCC2)n2cc(N3CC4(CN(c5ccc6cc(-c7ccccc7O)nnc6c5)C4)C3)nn2)cc1` [Compound 211, (2S,4R)-1-((S)-2-cyclobutyl-2-(4-(6-(3-(2-hydroxyphenyl)cinnolin-7-yl)-2,6-diazaspiro[3.3]heptan-2-yl)-1H-1,2,3-triazol-1-yl)acetyl)-4-hydroxy-N-((S)-1-(4-(4-methylthiazol-5-yl)phenyl)ethyl)pyrrolidine-2-carboxamide], in assay [1], the DC50 is less than 10 nM and the “BRM HiBit Degradation Maximum (%)” value was “A (“A” indicates maximum degradation ≥75%)”. In assay [2], the Dmax is less than 50%.

Take `Cc1ncsc1-c1ccc([C@H](C)NC(=O)[C@@H]2C[C@@H](O)CN2C(=O)[C@H](C(C)C)n2cc(N3CC4(CC(c5ccc6cc(-c7ccccc7O)nnc6c5)C4)C3)nn2)cc1` [Compound 212, (2S,4R)-4-hydroxy-1-((S)-2-(4-(6-(3-(2-hydroxyphenyl)cinnolin-7-yl)-2-azaspiro[3.3]heptan-2-yl)-1H-1,2,3-triazol-1-yl)-3-methylbutanoyl)-N-((S)-1-(4-(4-methylthiazol-5-yl)phenyl)ethyl)pyrrolidine-2-carboxamide]: in assay [1], the DC50 is less than 10 nM and the “BRM HiBit Degradation Maximum (%)” value was “A (“A” indicates maximum degradation ≥75%)”. Further, in assay [2], the DC50 was more than 10 nM and the Dmax is more than 75%.
